{"source": "paper PMC2760071", "about": "(Bioorganic & medicinal chemistry letters, 2009)", "key": {"[1]": {"target": "T1, murine COX-2 (Mus musculus, UniProt Q05769)", "T1 sequence (Q05769 18-604)": "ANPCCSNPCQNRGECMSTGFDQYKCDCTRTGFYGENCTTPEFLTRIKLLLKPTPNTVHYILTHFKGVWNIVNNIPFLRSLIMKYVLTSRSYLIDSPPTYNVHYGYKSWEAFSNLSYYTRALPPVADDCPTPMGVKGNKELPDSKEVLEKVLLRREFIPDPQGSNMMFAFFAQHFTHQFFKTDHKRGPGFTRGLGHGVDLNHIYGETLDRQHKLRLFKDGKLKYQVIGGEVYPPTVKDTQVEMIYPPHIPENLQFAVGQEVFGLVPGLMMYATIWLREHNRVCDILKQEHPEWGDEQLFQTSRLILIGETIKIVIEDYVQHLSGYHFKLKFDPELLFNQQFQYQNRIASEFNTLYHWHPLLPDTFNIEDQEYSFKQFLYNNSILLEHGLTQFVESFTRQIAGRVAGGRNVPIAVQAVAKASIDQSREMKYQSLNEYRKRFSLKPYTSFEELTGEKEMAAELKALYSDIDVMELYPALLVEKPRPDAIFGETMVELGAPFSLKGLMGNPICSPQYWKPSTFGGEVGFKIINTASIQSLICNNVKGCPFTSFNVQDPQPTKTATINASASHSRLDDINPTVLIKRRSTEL", "experiment": "Competitive COX inhibition assay, reduced arachidonate", "assay_type": "biochemical", "conditions": "COX-2, 5 μM arachidonate, at the concentration ranges tested"}, "[2]": {"experiment": "Photoisomerization / light stability of E and Z isomers"}, "[3]": {"target": "T1, murine COX-2", "conditions": "COX-2, 50 μM arachidonic acid (saturating)"}, "[4]": {"target": "T2, ovine COX-1 (Ovis aries, UniProt P05979)", "T2 sequence (P05979 25-600)": "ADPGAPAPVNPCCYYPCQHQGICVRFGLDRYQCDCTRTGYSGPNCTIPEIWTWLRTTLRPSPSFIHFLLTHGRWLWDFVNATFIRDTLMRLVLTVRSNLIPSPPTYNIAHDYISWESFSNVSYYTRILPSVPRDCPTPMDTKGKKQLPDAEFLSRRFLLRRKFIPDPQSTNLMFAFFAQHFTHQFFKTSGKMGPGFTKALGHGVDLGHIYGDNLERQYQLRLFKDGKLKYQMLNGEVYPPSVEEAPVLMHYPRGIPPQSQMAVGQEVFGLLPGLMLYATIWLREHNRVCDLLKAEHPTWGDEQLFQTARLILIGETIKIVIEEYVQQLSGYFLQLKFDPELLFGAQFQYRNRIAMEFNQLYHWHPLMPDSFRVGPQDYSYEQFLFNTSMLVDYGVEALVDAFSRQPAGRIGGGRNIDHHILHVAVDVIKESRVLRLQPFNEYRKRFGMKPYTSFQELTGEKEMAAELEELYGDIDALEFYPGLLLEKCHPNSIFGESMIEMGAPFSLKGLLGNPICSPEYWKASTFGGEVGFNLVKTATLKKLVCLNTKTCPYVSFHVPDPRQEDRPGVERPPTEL", "conditions": "COX-1, 50 μM arachidonic acid (saturating)"}, "[5]": {"tested_on": "oCOX-1", "conditions": "wild-type oCOX-1; cited from earlier work"}, "[6]": {"target": "T2, ovine COX-1", "conditions": "COX-1, 5 μM vs 50 μM arachidonate, data not shown"}}, "note": "pIC50: −log10 of the molar value.", "data": [{"smiles": "CSc1ccc(/C=C2\\C=C(CC(=O)O)c3cc(F)ccc32)cc1", "values": [{"measurement": "competitive inhibition (in words)", "setting": "[1]", "value": "no inhibition"}, {"measurement": "percentage conversion to the Z-isomer", "setting": "[2]; 370 nm, 24 hours, high-pressure mercury lamp", "value": "1-2%"}, {"measurement": "time-dependent inhibition (in words)", "setting": "[3]", "value": "no time-dependent inhibition"}, {"measurement": "time-dependent inhibition (in words)", "setting": "[4]", "value": "no time-dependent inhibition"}]}, {"smiles": "CSc1ccc(/C=C2/C=C(CC(=O)O)c3cc(F)ccc32)cc1", "note": "[(Z)-2′-des-methyl sulindac sulfide]", "values": [{"measurement": "behaviour on exposure to natural light", "setting": "[2]; natural light, during HPLC purification", "value": "photoisomerized to the E-isomer"}]}, {"smiles": "COc1ccc2c(c1)c(CC(=O)O)c(C)n2C(=O)c1ccc(Cl)cc1", "note": "[Indomethacin, indomethacin]", "values": [{"measurement": "pIC50", "setting": "[5]", "value": "[…]"}]}, {"smiles": "CSc1ccc(/C=C2/C(C)=C(CC(=O)O)c3cc(F)ccc32)cc1", "note": "[sulindac sulfide, reference compound]", "values": [{"measurement": "photoisomerization (interconversion)", "setting": "[2]; natural light and ultraviolet conditions", "value": "no interconversion was observed"}, {"measurement": "effect of reduced substrate concentration on ability to inhibit", "setting": "[6]", "value": "not significantly affected"}, {"measurement": "maximal extent (plateau) of inhibition", "setting": "[4]", "value": "around 75%"}]}]}
